Assay results reported in ChEMBL document CHEMBL1201862, “PubChem BioAssay data set” (2004).
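Assay format: 96-well plates, 48-hour exposure. At the GI50, growth is halved.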 Activity calls are given as the source filed them. Cut-off read from the data, not from the text of the source: active = GI50 up to about 1.1 µM and inactive = higher.

Columns and labels:
Test in all cases: DTP human tumour cell line panel, 48 h
[1] = tested on: NCI/ADR-RES
[2] = tested on: OVCAR-8
[3] = tested on: SF-295
[4] = tested on: OVCAR-5
[5] = tested on: ACHN
[6] = tested on: TK-10
[7] = tested on: A498
[8] = tested on: SF-539
[9] = tested on: HCC 2998
[10] = tested on: PC-3
[11] = tested on: KM12
[12] = tested on: HL-60
[13] = tested on: MDA-MB-231
[14] = tested on: LXFL 529
[15] = tested on: BT-549
[16] = tested on: UACC-257
[17] = tested on: HT-29
[18] = tested on: SF-268
[19] = tested on: NCI-H226
[20] = tested on: CAKI-1

CCCCCCCCCCCC(=O)OC[C@@H](C[As](=O)(O)O)OC(=O)CCCCCCCCCCC
GI50 [1]: 17.3 µM (inactive) | GI50 [2]: 9.98 µM (inactive) | GI50 [3]: 13.2 µM (inactive) | GI50 [4]: 16.3 µM (inactive) | GI50 [5]: 3.01 µM (inactive) | GI50 [6]: 11.6 µM (inactive) | GI50 [7]: 11.9 µM (inactive) | GI50 [8]: 12.6 µM (inactive) | GI50 [9]: 7.57 µM (inactive) | GI50 [10]: 2.43 µM (inactive) | GI50 [11]: 5.02 µM (inactive) | GI50 [12]: 2.95 µM (inactive) | GI50 [13]: 3.52 µM (inactive) | GI50 [14]: 5.45 µM (inactive) | GI50 [15]: 3.48 µM (inactive) | GI50 [16]: 16.4 µM (inactive) | GI50 [17]: 9.82 µM (inactive) | GI50 [18]: 5.15 µM (inactive) | GI50 [19]: 16.4 µM (inactive) | GI50 [20]: 11.1 µM (inactive)

COC(=O)C(CBr)CBr
GI50 [1]: 3.1 µM (inactive) | GI50 [2]: 3.41 µM (inactive) | GI50 [3]: 16.2 µM (inactive) | GI50 [4]: 16.8 µM (inactive) | GI50 [5]: 3.7 µM (inactive) | GI50 [6]: 4.79 µM (inactive) | GI50 [7]: 16.8 µM (inactive) | GI50 [8]: 5.96 µM (inactive) | GI50 [9]: 4.49 µM (inactive) | GI50 [10]: 10.2 µM (inactive) | GI50 [11]: 8.04 µM (inactive) | GI50 [12]: 0.253 µM (active) | GI50 [13]: 2.12 µM (inactive) | GI50 [14]: 1.79 µM (inactive) | GI50 [15]: 2.65 µM (inactive) | GI50 [16]: 5.58 µM (inactive) | GI50 [17]: 4.1 µM (inactive) | GI50 [18]: 15.1 µM (inactive) | GI50 [19]: 13.3 µM (inactive) | GI50 [20]: 5.51 µM (inactive)

C1CN1c1nc(N2CC2)nc(N2CC2)n1
GI50 [1]: 5.42 µM (inactive) | GI50 [2]: 7.55 µM (inactive) | GI50 [3]: 2.37 µM (inactive) | GI50 [4]: 11.5 µM (inactive) | GI50 [5]: 0.944 µM (active) | GI50 [6]: 24 µM (inactive) | GI50 [7]: 9.95 µM (inactive) | GI50 [8]: 2.68 µM (inactive) | GI50 [9]: 8.87 µM (inactive) | GI50 [10]: 12.3 µM (inactive) | GI50 [11]: 16.2 µM (inactive) | GI50 [12]: 0.649 µM (active) | GI50 [13]: 20.2 µM (inactive) | GI50 [14]: 13.9 µM (inactive) | GI50 [15]: 15.9 µM (inactive) | GI50 [16]: 10.7 µM (inactive) | GI50 [17]: 13.2 µM (inactive) | GI50 [18]: 2.99 µM (inactive) | GI50 [19]: 8.24 µM (inactive) | GI50 [20]: 2.19 µM (inactive)

N#CC(C#N)=C(N)/C(C#N)=C/c1cc(O)c(O)c(Br)c1
GI50 [1]: 36.4 µM (inactive) | GI50 [2]: 48.1 µM (inactive) | GI50 [3]: > 82 µM (inactive) | GI50 [4]: > 43.6 µM (inactive) | GI50 [5]: 77.1 µM (inactive) | GI50 [6]: > 100 µM (inactive) | GI50 [7]: > 100 µM (inactive) | GI50 [8]: 44.1 µM (inactive) | GI50 [9]: > 74 µM (inactive) | GI50 [10]: 92.5 µM (inactive) | GI50 [11]: 75.9 µM (inactive) | GI50 [12]: 28.1 µM (inactive) | GI50 [13]: 88.5 µM (inactive) | GI50 [14]: 44.9 µM (inactive) | GI50 [15]: > 100 µM (inactive) | GI50 [16]: 72.4 µM (inactive) | GI50 [17]: 37.4 µM (inactive) | GI50 [18]: > 62.5 µM (inactive) | GI50 [19]: 21.1 µM (inactive) | GI50 [20]: > 100 µM (inactive)
